Experimental data as given in publication PMC3761967 (Bioorganic & medicinal chemistry, 2012).
Where no end group is shown, it is not given here. The star is where a group is joined. Dansyl = CN(C)c1cccc2c(S(=O)(=O)*)cccc12

What was measured:
[1] = test system: recombinant human FTase; settings: cited from earlier work
[2] = test system: Ras processing in ras-transformed NIH3T3; settings: cited from earlier work
[3] = test system: tobacco BY-2 cells; settings: cited from earlier work
[4] = test system: rubber transferase; settings: rubber transferase from Hevea Brasiliensis; cited from earlier work
[5] = test system: PBP1b (penicillin-binding protein 1b); settings: cited from earlier work
[6] = test system: Ras/ERK1/2 pathway; settings: rats; cited from earlier work
[7] = test system: membrane-bound Ha-Ras / Ki-Ras; settings: cited from earlier work
[8] = test system: Ha-Ras; settings: murine ischemic stroke model; cited from earlier work
[9] = molecular target: T1, yeast FTase (Saccharomyces cerevisiae, UniProt P22007+P29703); test: Yeast FTase continuous fluorescence assay; assay type: biochemical; settings: yeast FTase IC50, 27 vs 2
T1 sequence (P29703 1-316): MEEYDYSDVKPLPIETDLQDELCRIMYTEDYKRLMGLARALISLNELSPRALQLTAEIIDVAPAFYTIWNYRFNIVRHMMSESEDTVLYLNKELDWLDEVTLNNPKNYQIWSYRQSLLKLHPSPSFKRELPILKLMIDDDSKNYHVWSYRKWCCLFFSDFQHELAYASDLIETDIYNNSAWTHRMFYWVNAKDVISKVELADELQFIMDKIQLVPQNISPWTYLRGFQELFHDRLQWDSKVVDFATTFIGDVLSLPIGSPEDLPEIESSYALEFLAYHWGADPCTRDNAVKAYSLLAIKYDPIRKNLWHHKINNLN
T1 sequence (P22007 1-431): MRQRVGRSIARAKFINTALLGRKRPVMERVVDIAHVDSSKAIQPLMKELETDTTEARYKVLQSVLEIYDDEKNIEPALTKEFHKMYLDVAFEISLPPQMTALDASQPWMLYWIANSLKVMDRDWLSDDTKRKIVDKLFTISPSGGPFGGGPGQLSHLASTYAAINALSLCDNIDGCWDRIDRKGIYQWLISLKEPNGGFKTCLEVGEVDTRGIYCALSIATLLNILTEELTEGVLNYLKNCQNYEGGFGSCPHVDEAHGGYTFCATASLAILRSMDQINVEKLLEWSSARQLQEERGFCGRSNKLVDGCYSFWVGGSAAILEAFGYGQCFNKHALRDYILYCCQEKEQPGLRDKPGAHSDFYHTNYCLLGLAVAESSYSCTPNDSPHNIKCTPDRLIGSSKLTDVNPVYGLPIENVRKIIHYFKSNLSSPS

[10] = mild basic conditions (pH=7.5), hydrolysed to dicarboxylate anion 2; ref 10a; cited from earlier work
[11] = test system: wild FTase; settings: peptide substrate; cited from earlier work

Compound: CCCCCCCCCCCCCC/C(C(=O)O)=C(\C)C(=O)O [compound 1, chaetomellic acid A]
- Mode of FTase inhibition towards the acceptor peptide Ras ([1]; diacid anion of 1): noncompetitive
- Mode of FTase inhibition with respect to farnesyl pyrophosphate (FPP) ([1]; diacid anion of 1): highly competitive
- Inhibition of Ras processing [2]: did not inhibit
- Effect on cell cycle progression [3]: specific arrest in the cell cycle
- Inhibition of rubber biosynthesis in vitro [4]: able to inhibit
- Reduction of PBP1b activity [5]: modest potency
- Effect on acute ischemia-reperfusion injury (renal function and histology) [6]: beneficial effect
- Effect on membrane-bound Ha-Ras [7]: selectively inhibited
- Effect on membrane-bound Ki-Ras [7]: did not alter
- Production of superoxide anion and volume of cerebral necrotic tissue [8]: significantly reducing

Compound: CCCCSCCCCCCCCC/C(C(=O)[O-])=C(\C)C(=O)[O-].[Na+].[Na+] [compound 27, disodium salt of 2-(9-(butylthio)nonyl)-3-methylmaleic acid]
- times more potent than ACA [9]: approximately 5

Compound: CCCCCCCCCCCCCCC1=C(C)C(=O)OC1=O [compound 3, chaetomellic anhydride A]
- Stability of the cyclic (anhydride) form [10]: unstable

Compound: dansyl-Gly-Cys-Val-Ile-Ala (Dansyl-GCVIA)
- kcat [11]: > 0.2 s⁻¹

Compound: CCCCCCCCCCCCCC/C(C(=O)O)=C(\C)C(=O)O [compound 2]
- IC50 ([1]; read-out: IC50 recombinant human FTase, dianionic form): 55 nM

Compound: dansyl-Gly-Cys-Val-Leu-Ser (Dansyl-GCVLS)
- kcat [11]: 0.4 s⁻¹
